Data on 17 molecules can be found in ChEMBL document CHEMBL2429833, “A new class of bactericidal agents against S. aureus, MRSA and VRE derived from bisindolylmethane” (Med Chem Res, 2013).

Test [1] concerns Enterococcus faecalis. Briefly: Antibacterial activity against vancomycin-resistant Enterococcus faecalis after 24 hrs by microdilution method. The class given is functional.
The test system of test [2] is Staphylococcus aureus. The experiment in a line: Antibacterial activity against methicillin-resistant Staphylococcus aureus after 24 hrs by microdilution method. The format is functional.
Test [3] has as its system Staphylococcus aureus. The experiment in a line: Antibacterial activity against Staphylococcus aureus ATCC 29213 after 24 hrs by microdilution method. Particulars: ATCC 29213, 24 h. The class given is functional. (Broth dilution looks for growth in wells or tubes with falling amounts of substance.)
Test [4] concerns A549. Briefly: Cytotoxicity against human A549 cells after 48 hrs by MTT assay. The class given is functional, cell-based.
For test [5], the system named is HeLa. The experiment in a line: Cytotoxicity against human HeLa cells after 48 hrs by MTT assay. The class given is functional, cell-based. On the technique in general: Tetrazolium dyes change colour on reduction, which living cells bring about.
The subject of test [6] is PC-3. Briefly: Cytotoxicity against human PC3 cells after 48 hrs by MTT assay. The format is functional, cell-based.
Test [7] concerns Enterococcus faecalis. The experiment in a line: Bactericidal activity against vancomycin-resistant Enterococcus faecalis after 24 hrs. The format is functional.
In test [8] the test system is Staphylococcus aureus. Briefly: Bactericidal activity against methicillin-resistant Staphylococcus aureus after 24 hrs. The class given is functional.
In test [9] the test system is Staphylococcus aureus. Briefly: Bactericidal activity against Staphylococcus aureus ATCC 29213 after 24 hrs. The class given is functional. Particulars: ATCC 29213, 24 h.
For test [10], the system named is Pseudomonas aeruginosa. The experiment in a line: Antibacterial activity against Pseudomonas aeruginosa ATCC 27853 after 24 hrs by microdilution method. The format is functional, organism-based.
The test system of test [11] is Escherichia coli. Briefly: Antibacterial activity against Escherichia coli ATCC 25922 after 24 hrs by microdilution method. The format is functional, organism-based.

Values after ≈ are worked out from the molar mass of the structure shown. Active and inactive are the calls of the source. Some results are limits rather than exact numbers.

What is called MIC is the lowest concentration found to suppress growth. Lower therefore signals a more susceptible organism. Usually IC50 stands for the point on the concentration scale where inhibition reaches its midpoint. The low end stands for higher potency, the high end for lower potency. With `COc1ccc(S(=O)(=O)n2cc(C(c3ccc(F)cc3)c3cn(S(=O)(=O)c4ccc(OC)cc4)c4ccc(Br)cc34)c3cc(Br)ccc32)cc1`, the MIC in test [1], in test [2] and in test [3] was more than 128 µg/mL in each case. Besides, the half-maximal inhibitory concentration (IC50) in test [4], in test [5] and in [6] was more than 100 µM throughout.

For `COc1ccc(Cn2cc(C(c3ccc(F)cc3)c3cn(Cc4ccc(OC)cc4)c4ccc(Br)cc34)c3cc(Br)ccc32)cc1`, the MIC in test [1], in [2] and in test [3] was more than 128 µg/mL each time. For the same molecule, the IC50 amounted to 36.4 µM in test [4], 48.5 µM in [5] and 43.5 µM in [6].

Regarding `Fc1ccc(C(c2cn(Cc3ccc(Br)cc3)c3ccc(Br)cc23)c2cn(Cc3ccc(Br)cc3)c3ccc(Br)cc23)cc1`, the MIC in test [1], in [2] and in test [3] was more than 128 µg/mL throughout. In addition, the half-inhibitory concentration (IC50) was 24.7 µM in [4], 49 µM in test [5] and 43.7 µM in test [6].

As usually defined, the MBC is the smallest concentration meeting the test's criterion for killing. Read a low MBC as more potent killing. As for `Cn1cc(C(c2ccc(F)cc2)c2cn(C)c3ccc(Br)cc23)c2cc(Br)ccc21`, the values for the minimum bactericidal concentration (MBC) in test [7], in test [8] and in [9] were 8 µg/mL (≈ 15.2 µM), 8 µg/mL (≈ 15.2 µM) and 4 µg/mL (≈ 7.6 µM), respectively. Also, the results for the MIC in test [1], in test [2] and in test [3] were 8 µg/mL (≈ 15.2 µM), 8 µg/mL (≈ 15.2 µM) and 4 µg/mL (≈ 7.6 µM), respectively. Besides, the IC50 was 29.4 µM in [4], 25.4 µM in [5] and 38.9 µM in [6].

As to `CCCCCn1cc(C(c2ccc(F)cc2)c2cn(CCCCC)c3ccc(Br)cc23)c2cc(Br)ccc21`, the MIC in [1], in test [2] and in test [3] was more than 128 µg/mL in each case. Moreover, the 50% inhibitory concentration (IC50) in test [4] was determined as 32.5 µM; in test [5], 27.2 µM; in [6], 40.3 µM.

For the molecule `Fc1ccc(C(c2cn(Cc3ccccc3)c3ccc(Br)cc23)c2cn(Cc3ccccc3)c3ccc(Br)cc23)cc1`, the MIC in test [1], in test [2] and in test [3] was more than 128 µg/mL throughout. The figures for the concentration for half-maximal inhibition (IC50) in test [4], in test [5] and in [6] were 28.2 µM, 28.3 µM and 43.1 µM, respectively.

For `Clc1ccc(C(c2c[nH]c3ccc(Br)cc23)c2c[nH]c3ccc(Br)cc23)cc1`, the result in [10] and in test [11] was inactive. The figures for the minimal bactericidal concentration (MBC) in test [7], in test [8] and in [9] were 8 µg/mL (≈ 15.5 µM), 8 µg/mL (≈ 15.5 µM) and 4 µg/mL (≈ 7.77 µM), respectively. In addition, the MIC was 8 µg/mL (≈ 15.5 µM) in test [1], 8 µg/mL (≈ 15.5 µM) in [2] and 4 µg/mL (≈ 7.77 µM) in [3].

As to `O=[N+]([O-])c1ccc2[nH]cc(C(c3ccc(O)cc3)c3c[nH]c4ccc([N+](=O)[O-])cc34)c2c1`, the result in [10] and in test [11] was inactive. Moreover, the values for the MBC in [7], in test [8] and in test [9] were 2 µg/mL (≈ 4.67 µM), 1 µg/mL (≈ 2.33 µM) and 1 µg/mL (≈ 2.33 µM), respectively. For the same molecule, the MIC was found to be 2 µg/mL (≈ 4.67 µM) in test [1], 1 µg/mL (≈ 2.33 µM) in [2] and 1 µg/mL (≈ 2.33 µM) in [3].

`CC1(C)CC(c2c[nH]c3ccc(Br)cc23)(c2c[nH]c3ccc(Br)cc23)c2ccc(O)cc2O1`: the result in [10] and in test [11] was inactive. The figures for the MBC in test [7], in test [8] and in [9] were 4 µg/mL (≈ 7.06 µM), 2 µg/mL (≈ 3.53 µM) and 2 µg/mL (≈ 3.53 µM), respectively. Also, the MIC in test [1] amounted to 4 µg/mL (≈ 7.06 µM); in [2] it was 2 µg/mL (≈ 3.53 µM); in [3], 2 µg/mL (≈ 3.53 µM).

For `Fc1ccc(C(c2c[nH]c3ccc(Br)cc23)c2c[nH]c3ccc(Br)cc23)cc1`, the result in [10] and in test [11] was inactive. The figures for the minimum bactericidal concentration (MBC) in test [7], in test [8] and in test [9] were 16 µg/mL (≈ 32.1 µM), 1 µg/mL (≈ 2.01 µM) and 1 µg/mL (≈ 2.01 µM), respectively. Besides, the MIC in test [1] came to 8 µg/mL (≈ 16.1 µM); in test [2], 1 µg/mL (≈ 2.01 µM); in [3] it was 1 µg/mL (≈ 2.01 µM). For the same molecule, the IC50 in test [4] worked out at 4.5 µM; in test [5], 2.7 µM; in [6], 3.9 µM.

`Fc1ccc(C(c2cn(Cc3ccc(Cl)cc3)c3ccc(Br)cc23)c2cn(Cc3ccc(Cl)cc3)c3ccc(Br)cc23)cc1`: the minimum inhibitory concentration (MIC) in [1], in test [2] and in test [3] was more than 128 µg/mL each time. The IC50 in test [4] came to 22.8 µM; in [5] it was 18.5 µM; in test [6] it was 38.5 µM.

`O=S(=O)(c1ccc(F)cc1)n1cc(C(c2ccc(F)cc2)c2cn(S(=O)(=O)c3ccc(F)cc3)c3ccc(Br)cc23)c2cc(Br)ccc21`: the minimum inhibitory concentration (MIC) in test [1], in [2] and in [3] was more than 128 µg/mL in each case. The IC50 in [4], in test [5] and in test [6] was more than 100 µM each time.

Take `Brc1ccc(C(c2c[nH]c3ccc(Br)cc23)c2c[nH]c3ccc(Br)cc23)cc1`: the outcome in [10] and in [11] was inactive. The results for the MBC in [7], in [8] and in test [9] were 64 µg/mL (≈ 114 µM), 64 µg/mL (≈ 114 µM) and 16 µg/mL (≈ 28.6 µM), respectively. The MIC in test [1] was 64 µg/mL (≈ 114 µM); in [2], 32 µg/mL (≈ 57.2 µM); in test [3], 8 µg/mL (≈ 14.3 µM).

As to `CCCCCCCCn1cc(C(c2ccc(F)cc2)c2cn(CCCCCCCC)c3ccc(Br)cc23)c2cc(Br)ccc21`, the MIC in test [1], in test [2] and in [3] was more than 128 µg/mL throughout. For the same molecule, the concentration for half-maximal inhibition (IC50) turned out to be 38.7 µM in [4], 32.4 µM in test [5] and 44.9 µM in test [6].

Turning to `Fc1ccc(Cn2cc(C(c3ccc(F)cc3)c3cn(Cc4ccc(F)cc4)c4ccc(Br)cc34)c3cc(Br)ccc32)cc1`, the MIC in test [1], in [2] and in test [3] was more than 128 µg/mL throughout. Besides, the IC50 was 8.7 µM in test [4], 1.1 µM in [5] and 36.5 µM in [6].

Take `O=[N+]([O-])c1ccc(C(c2c[nH]c3ccc(Br)cc23)c2c[nH]c3ccc(Br)cc23)cc1`: the result in test [10] and in [11] was inactive. Also, the minimum bactericidal concentration (MBC) in test [7] is 8 µg/mL (≈ 15.2 µM); in [8], 8 µg/mL (≈ 15.2 µM); in [9], 4 µg/mL (≈ 7.62 µM). For the same molecule, the MIC in [1] amounted to 8 µg/mL (≈ 15.2 µM); in test [2], 8 µg/mL (≈ 15.2 µM); in [3] it was 4 µg/mL (≈ 7.62 µM).

With `COc1ccc2c(c1)OC(C)(C)CC2(c1c[nH]c2ccc(Br)cc12)c1c[nH]c2ccc(Br)cc12`, the result in test [10] and in test [11] was inactive. In addition, the MBC in test [7] came out at 8 µg/mL (≈ 13.8 µM); in test [8] it was 8 µg/mL (≈ 13.8 µM); in [9], 4 µg/mL (≈ 6.89 µM). Further, the MIC in test [1] was 8 µg/mL (≈ 13.8 µM); in test [2] it was 4 µg/mL (≈ 6.89 µM); in test [3], 4 µg/mL (≈ 6.89 µM).
